Assay results reported in publication PMC3192784, “A Potent Inhibitor of SIK2, 3, 3′, 7-Trihydroxy-4′-Methoxyflavon (4′-O-Methylfisetin), Promotes Melanogenesis in B16F10 Melanoma Cells” (PLoS ONE, 2011).

What was measured:
[1] = molecular target: T1, SIK2 (salt inducible kinase 2) (Mus musculus, UniProt Q8CFH6); assay: in vitro kinase ELISA with GST-TORC2 peptide substrate; type: biochemical
T1 construct: GST-SIK2 expressed in COS-7 cells

[2] = molecular target: T1, SIK2 (salt inducible kinase 2); assay: as above; type: biochemical; remark: listed apart in the source

T1 sequence (Q8CFH6 whole entry): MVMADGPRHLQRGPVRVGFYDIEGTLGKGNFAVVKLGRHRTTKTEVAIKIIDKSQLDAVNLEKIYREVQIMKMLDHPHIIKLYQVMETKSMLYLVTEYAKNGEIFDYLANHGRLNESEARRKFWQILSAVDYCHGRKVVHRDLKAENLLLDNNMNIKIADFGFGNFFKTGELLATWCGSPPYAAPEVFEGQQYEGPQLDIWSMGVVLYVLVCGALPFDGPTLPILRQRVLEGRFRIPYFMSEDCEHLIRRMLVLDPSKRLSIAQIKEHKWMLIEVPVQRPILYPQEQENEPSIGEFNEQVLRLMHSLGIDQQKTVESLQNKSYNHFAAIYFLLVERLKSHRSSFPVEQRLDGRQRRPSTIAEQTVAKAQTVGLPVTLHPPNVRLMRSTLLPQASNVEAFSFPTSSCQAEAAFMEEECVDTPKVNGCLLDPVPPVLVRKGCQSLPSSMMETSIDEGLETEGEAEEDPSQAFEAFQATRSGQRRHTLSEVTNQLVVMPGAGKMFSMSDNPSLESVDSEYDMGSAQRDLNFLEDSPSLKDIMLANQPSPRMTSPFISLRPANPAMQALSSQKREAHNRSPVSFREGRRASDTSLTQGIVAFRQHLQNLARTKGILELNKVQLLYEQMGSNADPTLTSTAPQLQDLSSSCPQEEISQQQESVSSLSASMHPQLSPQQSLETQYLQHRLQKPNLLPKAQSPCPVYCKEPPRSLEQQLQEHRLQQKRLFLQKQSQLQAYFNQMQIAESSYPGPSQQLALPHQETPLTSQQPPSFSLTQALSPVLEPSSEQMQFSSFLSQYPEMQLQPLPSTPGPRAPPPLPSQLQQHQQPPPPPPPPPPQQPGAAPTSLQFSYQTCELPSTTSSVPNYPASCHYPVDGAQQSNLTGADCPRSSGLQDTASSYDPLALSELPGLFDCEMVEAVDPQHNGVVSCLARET

in vitro kinase ELISA with GST-TORC2 peptide substrate [1]	Structure (SMILES)	IC50 [2]
50 to 500 nM	COc1ccc(-c2cc(=O)c3c(O)cc(O)cc3o2)cc1O [diosmetin]	–
~ 50 nM	O=c1c(O)c(-c2ccc(O)c(O)c2)oc2cc(O)ccc12 [fisetin]	–
–	O=c1c(O)c(-c2ccc(O)c(O)c2)oc2cc(O)cc(O)c12 [quercetin]	500 nM

Structure (SMILES)	in vitro kinase ELISA with GST-TORC2 peptide substrate [1]	IC50 [2]
O=c1cc(-c2ccc(O)c(O)c2)oc2cc(O)cc(O)c12 [luteolin]	efficiency of SIK2-kinase inhibition in vitro by their non-methylated cognates (fisetin > luteolin > quercetin)	–
